Results on 4 compounds are retold here after US10220005B2 (GW Research Limited, priority 2012, dated 2019).

One assay deals with piglet model of HI. In words: Piglet model of HI, Nissl staining of brain slices (Example 1). It is filed as in vivo. The note with it: piglets; for effect of co-administered antagonist on the CBD-induced reduction of neuronal death: given with CBD 1 mg/kg i.v., AM630 1 mg/kg, WAY100635 0.1 mg/kg, caffeine 10 mg/kg. How it is done: (§1) A piglet model of HI was used as described in (Alvarez et al. 2008). Briefly, an HI insult is induced in anesthetized 1-3 day-old piglets by occluding both carotid arteries and decreasing inspired oxygen from 21 to 10% for 30 min.
(§2) Thirty minutes after the recovery of HI the test compound was administered via the i.v. route.
(§3) At the end of the experiment, piglets are euthanized and the brain removed; one hemisphere was immediately frozen and stored at −80 ° C. whereas the other one was preserved in 4% paraformaldehide. A sample of frozen brain was obtained to perform a proton magnetic resonance spectroscopy (H+-MRS). Similarly managed piglets but without HI served as controls.

Another assay has as its system interleukin 1. The experiment in a line: Piglet model of HI, interleukin 1 in brain tissue by microarrays. It is filed as in vivo. To be noted: piglets. As to the method:
as §1, §2, §3

Assay [1] has as its system rat model of HI. The experiment in a line: Rat model of HI, magnetic resonance imaging of brain lesion. In kind it is in vivo, Wistar rats. To be noted: rats, CBD 1 mg/kg s.c. single dose, one month later (P37). How it is done:
(§4) A rat model of HI was used as described by (Fernandez-Lopez et al., 2007). Briefly, an HI insult is induced in 7-10 day-old Wistar rats by electro-coagulating the left carotid artery under anaesthesia following by the exposure to 10% oxygen for 120 min.
The pups were then returned to their dams.
Rats were then euthanized and the brain removed and stored in 4% paraforlmadehide. Magnetic resonance imaging was performed on the brains to evaluate the damaged area. In some rats, MRI was performed 7 days after HI.

In assay [2] the test system is rat model of HI. The experiment in a line: Rat model of HI, neurobehavioral tests (rotarod, cylinder, novel object). In kind it is in vivo, Wistar rats. The note with it: rats, CBD 1 mg/kg s.c. single dose, tests at day 35. As to the method: as §4
Sham operated pups without hypoxia served as controls, and were treated with vehicle or CBD as indicated. The pups were then returned to their dams.
At day 35 rats underwent neurobehavioral tests: rotarod (to test coordination), cylinder (to test unilateral deficits) and novel object preference (to test memory impairments).
Background: The rotarod test checks motor coordination on a turning rod.

As to `Cn1c(=O)c2c(ncn2C)n(C)c1=O` [caffeine, Caffeine], the “effect of co-administered antagonist on the CBD-induced reduction of neuronal death” value in the assay with piglet model of HI is listed as “not by caffeine”.
With `COc1ccccc1N1CCN(CCN(C(=O)C2CCCCC2)c2ccccn2)CC1` [WAY], the “effect of co-administered antagonist on the CBD-induced reduction of neuronal death” value in the assay with piglet model of HI is on record as “blunted”.
With `COc1ccc(C(=O)c2c(C)n(CCN3CCOCC3)c3cc(I)ccc23)cc1` [AM], the “effect of co-administered antagonist on the CBD-induced reduction of neuronal death” value with piglet model of HI is listed as “blunted”. The “effect of co-administered antagonist on the CBD reduction of IL-1 production” value with interleukin 1 (given with CBD 1 mg/kg i.v., AM630 1 mg/kg, WAY100635 0.1 mg/kg, caffeine 10 mg/kg) is listed as “blunted”.
Turning to `C=C(C)[C@@H]1CCC(C)=C[C@H]1c1c(O)cc(CCCCC)cc1O` [CBD, cannabidiol], in the assay on rat model of HI [1], the “volume of lesion (MRI; printed as brain volume)” value was “significantly reduced”. Moreover, the “percentage of necrotic tissue in both the cortex and the hippocampus” value in the assay with piglet model of HI (CBD 1 mg/kg i.v. 30 min after HI, brain tissue 6 h after HI) is “reduces”. In addition, the “production of IL-1 (concentration of interleukin 1 in brain tissue)” value in the assay on interleukin 1 (CBD 1 mg/kg i.v., 6 h after HI, microarrays) is given as “reduces”. Further, in the assay with rat model of HI [2], the “coordination (RotaRod)” value is recorded as “normalization”, the “memory (novel object recognition)” value is reported as “normalization” and the “motor performance (cylinder rear test)” value is “normalization”.
